Source: patent US20250320213A1, “Nitrogen-Containing Heterocyclic Compounds” (Pfizer Inc., priority 2024, published 2025)

Columns and labels:
STAT6 = biological target: T1, STAT6 (Homo sapiens, UniProt P42226); experiment: STAT6 Reporter Luciferase Assay (IL-13 stimulated HaCaT keratinocyte NanoLuc reporter cells); type: cell-based; details: IL-13 stimulated HaCaT STAT6 NanoLuc reporter cells; read-out: Reporter EC50
T1 construct: stably transfected HaCaT keratinocyte cell line, which expresses NanoLuc luciferase reporter gene under the transcriptional control of the STAT6 responsive promoter; endogenous in cells; host or cells: HaCaT keratinocyte reporter cell line (stably transfected with a NanoLuc reporter)
T1 sequence (P42226 1-847): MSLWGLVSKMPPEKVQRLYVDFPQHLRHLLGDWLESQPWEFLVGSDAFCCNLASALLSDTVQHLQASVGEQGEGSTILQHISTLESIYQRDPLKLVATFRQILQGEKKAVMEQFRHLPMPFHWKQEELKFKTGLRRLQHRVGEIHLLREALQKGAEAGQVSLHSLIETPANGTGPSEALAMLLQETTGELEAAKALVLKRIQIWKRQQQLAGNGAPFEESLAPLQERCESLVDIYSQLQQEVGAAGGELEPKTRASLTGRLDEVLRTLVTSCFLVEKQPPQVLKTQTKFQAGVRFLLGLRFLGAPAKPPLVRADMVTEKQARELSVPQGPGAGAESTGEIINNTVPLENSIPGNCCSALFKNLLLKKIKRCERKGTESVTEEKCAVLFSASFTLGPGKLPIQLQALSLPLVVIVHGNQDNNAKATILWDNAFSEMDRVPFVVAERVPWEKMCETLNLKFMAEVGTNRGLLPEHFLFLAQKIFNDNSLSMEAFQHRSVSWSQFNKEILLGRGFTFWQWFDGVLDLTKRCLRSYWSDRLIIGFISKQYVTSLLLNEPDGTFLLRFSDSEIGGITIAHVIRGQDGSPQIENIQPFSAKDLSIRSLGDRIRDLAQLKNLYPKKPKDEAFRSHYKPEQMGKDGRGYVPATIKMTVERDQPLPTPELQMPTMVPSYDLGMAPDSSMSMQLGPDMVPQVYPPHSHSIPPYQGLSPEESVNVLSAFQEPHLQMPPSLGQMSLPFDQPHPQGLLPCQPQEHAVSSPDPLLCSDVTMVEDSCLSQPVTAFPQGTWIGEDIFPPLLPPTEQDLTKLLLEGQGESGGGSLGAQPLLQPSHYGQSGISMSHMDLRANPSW
In short: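 HaCaT cells stably carrying a NanoLuc reporter driven by the STAT6-responsive IL-13Ra2 promoter were preincubated with compounds for 2 h at 37 °C in 2% FBS medium. Cells were then stimulated with 0.12 nM IL-13 for 4 h, and luminescence was read after Nano-Glo substrate. Compounds ran as 11-point 4-fold dilutions in duplicate.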

[1] = system: CCL17 secretion in peripheral human whole blood; experiment: Human Whole Blood (HWB) CCL17 TR-FRET Assay (IL-13 stimulated CCL17 secretion); type: cell-based; details: Homo sapiens, 48 h, human whole blood, 10 ng/mL IL13, 48 hours
In short: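 IC50 comes from serum CCL17 measured by a TR-FRET sandwich assay (16 h at room temperature, 665/615 nm ratio). Beforehand, blood in sodium heparin was exposed to an 11-point, 3-fold compound series for 2 h at 37°C and then to 10 ng/mL IL-13 for 48 h.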

Structure (SMILES) | EC50 (STAT6) | IC50 [1]
CCn1nc(C(=O)NCc2ccc(NC(=O)N(C)C)cc2)c2c1C1(CC1)CN(c1ccc(C(=O)N(C)C)cn1)C2 [Example 555, 5′-(5-(dimethylcarbamoyl)pyridin-2-yl)-N-(4-(3,3-dimethylureido)benzyl)-1′-ethyl-1′,4′,5′,6′-tetrahydrospiro[cyclopropane-1,7′-pyrazolo[4,3-c]pyridine]-3′-carboxamide] | 5 nM | 52 nM
CC(C)n1nc(C(=O)NCc2ccc(NC(N)=O)cc2)c2c1[C@@H](C)CN(c1ncc(-c3nccn3C)cn1)C2 [Example 562, (S)-1-isopropyl-7-methyl-5-(5-(1-methyl-1H-imidazol-2-yl)pyrimidin-2-yl)-N-(4-ureidobenzyl)-4,5,6,7-tetrahydro-1H-pyrazolo[4,3-c]pyridine-3-carboxamide] | 3 nM | 8 nM
CC(C)n1nc(C(=O)NCc2ccc(NC(=O)N3CCNCC3)c(F)c2)c2c1[C@@H](C)CN(c1ccc(C(=O)N(C)C)cc1)C2 [Example 566, (S)-5-(4-(dimethylcarbamoyl)phenyl)-N-(3-fluoro-4-(piperazine-1-carboxamido)benzyl)-1-isopropyl-7-methyl-4,5,6,7-tetrahydro-1H-pyrazolo[4,3-c]pyridine-3-carboxamide] | 2 nM | 15 nM
CC(C)n1nc(C(=O)NCc2ccc(NC(=O)N3CCCN(C)CC3)cc2)c2c1[C@@H](C)CN(c1ccc(C(=O)N(C)C)cc1)C2 [Example 567, (S)-5-(4-(Dimethylcarbamoyl)phenyl)-1-isopropyl-7-methyl-N-(4-(4-methyl-1,4-diazepane-1-carboxamido)benzyl)-4,5,6,7-tetrahydro-1H-pyrazolo[4,3-c]pyridine-3-carboxamide] | 1 nM | 13 nM
CN[C@@H]1CCCN(C(=O)Nc2ccc(CNC(=O)c3nn(C(C)C)c4c3CN(c3ccc(C(=O)N(C)C)cc3)C[C@@H]4C)cc2F)C1 [Example 568, (S)-5-(4-(dimethylcarbamoyl)phenyl)-N-(3-fluoro-4-((R)-3-(methylamino)piperidine-1-carboxamido)benzyl)-1-isopropyl-7-methyl-4,5,6,7-tetrahydro-1H-pyrazolo[4,3-c]pyridine-3-carboxamide] | 2 nM | 13 nM
CN[C@H]1CCCN(C(=O)Nc2ccc(CNC(=O)c3nn(C(C)C)c4c3CN(c3ccc(C(=O)N(C)C)cc3)C[C@@H]4C)cc2F)C1 [Example 569, (S)-5-(4-(dimethylcarbamoyl)phenyl)-N-(3-fluoro-4-((S)-3-(methylamino)piperidine-1-carboxamido)benzyl)-1-isopropyl-7-methyl-4,5,6,7-tetrahydro-1H-pyrazolo[4,3-c]pyridine-3-carboxamide] | 4 nM | 20 nM
CC(C)n1nc(C(=O)NCc2ccc(NC(=O)N3CC[C@](C)(N)C3)cc2)c2c1[C@@H](C)CN(c1ccc(C(=O)N(C)C)cc1)C2 [Example 570, (S)-N-(4-((S)-3-amino-3-methylpyrrolidine-1-carboxamido)benzyl)-5-(4-(dimethylcarbamoyl)phenyl)-1-isopropyl-7-methyl-4,5,6,7-tetrahydro-1H-pyrazolo[4,3-c]pyridine-3-carboxamide] | 3 nM | 27 nM
CN[C@H]1CCN(C(=O)Nc2ccc(CNC(=O)c3nn(C(C)C)c4c3CN(c3ccc(C(=O)N(C)C)cc3)C[C@@H]4C)cc2)C1 [Example 571, (S)-5-(4-(dimethylcarbamoyl)phenyl)-1-isopropyl-7-methyl-N-(4-((S)-3-(methylamino)pyrrolidine-1-carboxamido)benzyl)-4,5,6,7-tetrahydro-1H-pyrazolo[4,3-c]pyridine-3-carboxamide] | 4 nM | 20 nM
CC(C)n1nc(C(=O)NCc2ccc(NC(=O)N3CC[C@@](C)(N)C3)cc2)c2c1[C@@H](C)CN(c1ccc(C(=O)N(C)C)cc1)C2 [Example 572, (S)-N-(4-((R)-3-amino-3-methylpyrrolidine-1-carboxamido)benzyl)-5-(4-(dimethylcarbamoyl)phenyl)-1-isopropyl-7-methyl-4,5,6,7-tetrahydro-1H-pyrazolo[4,3-c]pyridine-3-carboxamide] | 3 nM | 20 nM
CC(C)n1nc(C(=O)NCc2ccc(NC(=O)N3CCN4CCC[C@@H]4C3)cc2)c2c1[C@@H](C)CN(c1ccc(C(=O)N(C)C)cc1)C2 [Example 574, (S)-5-(4-(dimethylcarbamoyl)phenyl)-1-isopropyl-7-methyl-N-(4-((R)-octahydropyrrolo[1,2-a]pyrazine-2-carboxamido)benzyl)-4,5,6,7-tetrahydro-1H-pyrazolo[4,3-c]pyridine-3-carboxamide] | 0.5 nM | 11 nM
CC(C)n1nc(C(=O)NCc2ccc(NC(=O)N3CCN4CCC[C@H]4C3)cc2)c2c1[C@@H](C)CN(c1ccc(C(=O)N(C)C)cc1)C2 [Example 575, (S)-5-(4-(dimethylcarbamoyl)phenyl)-1-isopropyl-7-methyl-N-(4-((S)-octahydropyrrolo[1,2-a]pyrazine-2-carboxamido)benzyl)-4,5,6,7-tetrahydro-1H-pyrazolo[4,3-c]pyridine-3-carboxamide] | 1 nM | 10 nM
CC(C)n1nc(C(=O)NCc2ccc(NC(=O)N3CCCNCC3)c(F)c2)c2c1[C@@H](C)CN(c1ccc(C(=O)N(C)C)cc1)C2 [Example 576, (S)-N-(4-(1,4-diazepane-1-carboxamido)-3-fluorobenzyl)-5-(4-(dimethylcarbamoyl)phenyl)-1-isopropyl-7-methyl-4,5,6,7-tetrahydro-1H-pyrazolo[4,3-c]pyridine-3-carboxamide] | 4 nM | 19 nM
COC[C@H]1CN(C(=O)Nc2ccc(CNC(=O)c3nn(C(C)C)c4c3CN(c3ccc(C(=O)N(C)C)cc3)C[C@@H]4C)cc2)CCN1 [Example 577, (S)-5-(4-(dimethylcarbamoyl)phenyl)-1-isopropyl-N-(4-((R)-3-(methoxymethyl)piperazine-1-carboxamido)benzyl)-7-methyl-4,5,6,7-tetrahydro-1H-pyrazolo[4,3-c]pyridine-3-carboxamide] | 1 nM | 4 nM
COC[C@@H]1CN(C(=O)Nc2ccc(CNC(=O)c3nn(C(C)C)c4c3CN(c3ccc(C(=O)N(C)C)cc3)C[C@@H]4C)cc2)CCN1 [Example 578, (S)-5-(4-(dimethylcarbamoyl)phenyl)-1-isopropyl-N-(4-((S)-3-(methoxymethyl)piperazine-1-carboxamido)benzyl)-7-methyl-4,5,6,7-tetrahydro-1H-pyrazolo[4,3-c]pyridine-3-carboxamide] | 0.5 nM | 5 nM
CC(C)n1nc(C(=O)NCc2ccc(NC(=O)NCC(F)F)cc2)c2c1[C@@H](C)CN(c1ccc(C(=O)N(C)C)cn1)C2 [Example 579, (S)-N-(4-(3-(2,2-difluoroethyl)ureido)benzyl)-5-(5-(dimethylcarbamoyl)pyridin-2-yl)-1-isopropyl-7-methyl-4,5,6,7-tetrahydro-1H-pyrazolo[4,3-c]pyridine-3-carboxamide] | 0.4 nM | 8 nM
CC(C)n1nc(C(=O)NCc2ccc(NC(=O)N3CCN(C)CC3)c(F)c2)c2c1[C@@H](C)CN(c1ccc(C(=O)N(C)C)cc1)C2 [Example 580, (S)-5-(4-(dimethylcarbamoyl)phenyl)-N-(3-fluoro-4-(4-methylpiperazine-1-carboxamido)benzyl)-1-isopropyl-7-methyl-4,5,6,7-tetrahydro-1H-pyrazolo[4,3-c]pyridine-3-carboxamide] | 1 nM | 11 nM
CNC1(C)CN(C(=O)Nc2ccc(CNC(=O)c3nn(C(C)C)c4c3CN(c3ccc(C(=O)N(C)C)cc3)C[C@@H]4C)cc2)C1 [Example 581, (S)-5-(4-(dimethylcarbamoyl)phenyl)-1-isopropyl-7-methyl-N-(4-(3-methyl-3-(methylamino)azetidine-1-carboxamido)benzyl)-4,5,6,7-tetrahydro-1H-pyrazolo[4,3-c]pyridine-3-carboxamide] | 3 nM | 24 nM
